Measured values reported in paper PMC4508061, “Selectivity Profiling and Biological Activity of Novel β-Carbolines as Potent and Selective DYRK1 Kinase Inhibitors” (PLoS ONE, 2015).

Legend:
[1] = target: SRPK2 (Homo sapiens, UniProt P78362); experiment: ProQinase radiometric kinase panel; details: mean of 2 exp.
[2] = target: TGFB-R2 (Homo sapiens, UniProt P37173); experiment: ProQinase radiometric kinase panel; details: mean of 2 exp.
[3] = target: IKK-epsilon (Homo sapiens, UniProt Q14164); experiment: ProQinase radiometric kinase panel; details: mean of 2 exp.
Chain of IKK-epsilon (Q14164 whole entry): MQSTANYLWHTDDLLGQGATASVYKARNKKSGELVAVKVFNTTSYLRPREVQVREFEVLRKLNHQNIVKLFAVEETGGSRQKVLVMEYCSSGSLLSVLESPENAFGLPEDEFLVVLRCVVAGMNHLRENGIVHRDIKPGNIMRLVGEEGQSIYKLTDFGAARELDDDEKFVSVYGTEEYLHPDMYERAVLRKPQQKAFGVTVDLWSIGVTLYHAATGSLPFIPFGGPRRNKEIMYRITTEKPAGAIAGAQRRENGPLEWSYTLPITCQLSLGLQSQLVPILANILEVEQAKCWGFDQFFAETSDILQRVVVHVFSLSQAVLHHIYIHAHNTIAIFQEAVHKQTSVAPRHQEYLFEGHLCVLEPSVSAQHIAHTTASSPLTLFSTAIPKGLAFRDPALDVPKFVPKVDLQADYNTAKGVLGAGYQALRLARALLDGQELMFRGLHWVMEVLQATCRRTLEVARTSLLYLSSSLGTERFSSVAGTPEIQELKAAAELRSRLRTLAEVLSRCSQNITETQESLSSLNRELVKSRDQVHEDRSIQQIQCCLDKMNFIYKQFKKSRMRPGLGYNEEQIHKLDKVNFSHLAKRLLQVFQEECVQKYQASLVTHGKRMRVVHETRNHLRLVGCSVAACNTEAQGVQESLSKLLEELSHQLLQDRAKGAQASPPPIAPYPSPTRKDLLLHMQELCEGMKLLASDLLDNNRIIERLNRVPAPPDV

[4] = target: GRK2 (Homo sapiens, UniProt P25098); experiment: ProQinase radiometric kinase panel; details: mean of 2 exp.
[5] = target: FER (Homo sapiens, UniProt P16591); experiment: ProQinase radiometric kinase panel; details: mean of 2 exp.
[6] = target: JNK3 (Homo sapiens, UniProt P53779); experiment: ProQinase radiometric kinase panel; details: mean of 2 exp.
Method: (§1) Gini coefficients were calculated and the Lorenz curve (Fig 3B) was plotted by applying the Microsoft Excel spreadsheet provided by Graczyk [44].
radiometric protein kinase assays.

[7] = target: EPHA4 (Homo sapiens, UniProt P54764); experiment: ProQinase radiometric kinase panel; details: mean of 2 exp.
[8] = target: SGK3 (Homo sapiens, UniProt Q96BR1); experiment: ProQinase radiometric kinase panel; details: mean of 2 exp.
Chain of SGK3 (Q96BR1 whole entry): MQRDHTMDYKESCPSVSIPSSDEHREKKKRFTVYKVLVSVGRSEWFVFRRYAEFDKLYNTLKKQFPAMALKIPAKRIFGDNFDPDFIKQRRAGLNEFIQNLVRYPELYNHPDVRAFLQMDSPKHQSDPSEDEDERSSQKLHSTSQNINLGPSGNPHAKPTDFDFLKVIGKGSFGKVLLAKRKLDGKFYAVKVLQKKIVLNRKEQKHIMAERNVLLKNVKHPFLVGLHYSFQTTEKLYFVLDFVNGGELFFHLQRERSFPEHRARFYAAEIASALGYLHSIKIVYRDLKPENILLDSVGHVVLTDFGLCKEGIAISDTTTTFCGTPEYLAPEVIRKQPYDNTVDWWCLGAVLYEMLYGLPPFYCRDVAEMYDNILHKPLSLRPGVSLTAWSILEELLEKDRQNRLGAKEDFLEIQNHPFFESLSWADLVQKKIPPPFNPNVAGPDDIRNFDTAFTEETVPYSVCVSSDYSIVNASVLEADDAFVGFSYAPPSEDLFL

[9] = target: DAPK1 (Homo sapiens, UniProt P53355); experiment: ProQinase radiometric kinase panel; details: mean of 2 exp.
Chain of DAPK1 (P53355 whole entry): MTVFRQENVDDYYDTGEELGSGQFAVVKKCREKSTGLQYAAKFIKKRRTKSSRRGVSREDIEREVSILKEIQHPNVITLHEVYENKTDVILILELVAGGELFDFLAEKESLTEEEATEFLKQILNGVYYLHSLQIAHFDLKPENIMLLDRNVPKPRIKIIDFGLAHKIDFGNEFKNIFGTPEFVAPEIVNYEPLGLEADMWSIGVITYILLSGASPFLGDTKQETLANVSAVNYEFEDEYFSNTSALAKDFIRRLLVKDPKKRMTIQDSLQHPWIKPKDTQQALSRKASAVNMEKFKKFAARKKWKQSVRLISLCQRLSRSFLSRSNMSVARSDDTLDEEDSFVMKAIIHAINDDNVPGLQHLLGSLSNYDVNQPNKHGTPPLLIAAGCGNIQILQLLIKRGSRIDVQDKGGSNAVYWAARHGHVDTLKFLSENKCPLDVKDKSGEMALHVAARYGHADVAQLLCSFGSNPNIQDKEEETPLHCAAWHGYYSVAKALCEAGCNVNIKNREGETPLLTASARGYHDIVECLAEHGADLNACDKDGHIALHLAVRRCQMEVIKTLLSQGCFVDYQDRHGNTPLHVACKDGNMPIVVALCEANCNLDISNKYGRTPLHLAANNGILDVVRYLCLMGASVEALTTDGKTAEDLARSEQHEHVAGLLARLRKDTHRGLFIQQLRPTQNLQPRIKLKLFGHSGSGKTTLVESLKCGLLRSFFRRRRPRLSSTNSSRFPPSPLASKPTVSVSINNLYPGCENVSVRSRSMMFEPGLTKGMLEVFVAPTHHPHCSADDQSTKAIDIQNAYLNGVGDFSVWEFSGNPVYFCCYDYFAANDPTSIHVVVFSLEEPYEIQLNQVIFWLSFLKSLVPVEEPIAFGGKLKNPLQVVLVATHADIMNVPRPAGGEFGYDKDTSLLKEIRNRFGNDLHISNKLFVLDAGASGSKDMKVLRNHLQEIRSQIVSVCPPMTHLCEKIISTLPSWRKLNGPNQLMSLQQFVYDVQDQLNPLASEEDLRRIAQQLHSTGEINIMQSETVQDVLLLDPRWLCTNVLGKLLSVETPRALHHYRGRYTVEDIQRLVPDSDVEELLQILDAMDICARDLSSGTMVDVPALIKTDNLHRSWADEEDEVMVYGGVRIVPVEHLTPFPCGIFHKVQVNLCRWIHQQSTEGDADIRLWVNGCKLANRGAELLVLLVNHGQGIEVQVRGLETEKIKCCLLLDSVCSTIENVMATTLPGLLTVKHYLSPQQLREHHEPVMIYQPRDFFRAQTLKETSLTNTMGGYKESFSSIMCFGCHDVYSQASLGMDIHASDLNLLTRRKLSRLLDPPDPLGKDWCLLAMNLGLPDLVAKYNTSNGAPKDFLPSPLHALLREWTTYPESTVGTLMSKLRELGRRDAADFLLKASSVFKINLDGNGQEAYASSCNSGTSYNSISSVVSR

[10] = target: LCK (Homo sapiens, UniProt P06239); experiment: ProQinase radiometric kinase panel; details: mean of 2 exp.
Method: as §1
radiometric protein kinase assays.

[11] = target: MST4 (Homo sapiens, UniProt Q9P289); experiment: ProQinase radiometric kinase panel; details: mean of 2 exp.
[12] = target: DCAMKL2 (Homo sapiens, UniProt Q8N568); experiment: ProQinase radiometric kinase panel; details: mean of 2 exp.
[13] = target: WNK2 (Homo sapiens, UniProt Q9Y3S1); experiment: ProQinase radiometric kinase panel; details: mean of 2 exp.
[14] = target: TTK (Homo sapiens, UniProt P33981); experiment: ProQinase radiometric kinase panel; details: mean of 2 exp.
[15] = target: GRK3 (Homo sapiens, UniProt P35626); experiment: ProQinase radiometric kinase panel; details: mean of 2 exp.
[16] = target: PKA (Homo sapiens, UniProt P17612); experiment: ProQinase radiometric kinase panel; details: mean of 2 exp.
[17] = target: TLK2 (Homo sapiens, UniProt Q86UE8); experiment: ProQinase radiometric kinase panel; details: mean of 2 exp.
[18] = target: CDK3/CycE1 (Homo sapiens, UniProt Q00526); experiment: ProQinase radiometric kinase panel; details: mean of 2 exp.
[19] = target: PBK (Homo sapiens, UniProt Q96KB5); experiment: ProQinase radiometric kinase panel; details: mean of 2 exp.
Chain of PBK (Q96KB5 whole entry): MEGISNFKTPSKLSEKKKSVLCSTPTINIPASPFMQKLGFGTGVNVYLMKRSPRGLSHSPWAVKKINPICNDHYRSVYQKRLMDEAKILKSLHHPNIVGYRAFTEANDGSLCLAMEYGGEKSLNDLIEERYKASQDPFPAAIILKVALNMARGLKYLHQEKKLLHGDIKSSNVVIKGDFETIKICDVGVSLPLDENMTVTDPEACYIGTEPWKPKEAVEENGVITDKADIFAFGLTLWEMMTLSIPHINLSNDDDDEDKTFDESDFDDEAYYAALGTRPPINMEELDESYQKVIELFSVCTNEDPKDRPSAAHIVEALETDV

[20] = target: TRK-C (Homo sapiens, UniProt Q16288); experiment: ProQinase radiometric kinase panel; details: mean of 2 exp.
Chain of TRK-C (Q16288 32-839): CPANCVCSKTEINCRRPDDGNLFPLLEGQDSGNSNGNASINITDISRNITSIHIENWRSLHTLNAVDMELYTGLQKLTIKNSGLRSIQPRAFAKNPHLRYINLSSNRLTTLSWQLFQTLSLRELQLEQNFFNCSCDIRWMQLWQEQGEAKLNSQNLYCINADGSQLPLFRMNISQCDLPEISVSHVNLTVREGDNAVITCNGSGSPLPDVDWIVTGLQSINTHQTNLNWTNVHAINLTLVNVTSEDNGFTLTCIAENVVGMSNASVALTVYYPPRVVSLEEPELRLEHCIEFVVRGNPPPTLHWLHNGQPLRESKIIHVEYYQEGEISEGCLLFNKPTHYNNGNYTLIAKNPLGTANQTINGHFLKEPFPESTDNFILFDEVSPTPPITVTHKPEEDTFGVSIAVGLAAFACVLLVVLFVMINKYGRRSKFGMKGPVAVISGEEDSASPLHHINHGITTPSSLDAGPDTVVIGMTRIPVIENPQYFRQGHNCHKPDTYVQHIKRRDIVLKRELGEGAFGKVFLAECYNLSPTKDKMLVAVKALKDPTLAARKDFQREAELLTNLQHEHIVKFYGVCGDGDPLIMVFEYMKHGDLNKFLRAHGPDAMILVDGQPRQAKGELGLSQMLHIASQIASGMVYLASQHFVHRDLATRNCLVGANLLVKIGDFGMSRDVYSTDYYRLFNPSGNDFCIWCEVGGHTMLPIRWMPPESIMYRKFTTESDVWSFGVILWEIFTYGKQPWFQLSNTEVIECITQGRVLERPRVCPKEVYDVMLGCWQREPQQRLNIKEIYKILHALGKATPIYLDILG

[21] = target: ZAP70 (Homo sapiens, UniProt P43403); experiment: ProQinase radiometric kinase panel; details: mean of 2 exp.
[22] = target: LYN (Homo sapiens, UniProt P07948); experiment: ProQinase radiometric kinase panel; details: mean of 2 exp.
[23] = target: p38-delta (Homo sapiens, UniProt O15264); experiment: ProQinase radiometric kinase panel; details: mean of 2 exp.
Chain of p38-delta (O15264 whole entry): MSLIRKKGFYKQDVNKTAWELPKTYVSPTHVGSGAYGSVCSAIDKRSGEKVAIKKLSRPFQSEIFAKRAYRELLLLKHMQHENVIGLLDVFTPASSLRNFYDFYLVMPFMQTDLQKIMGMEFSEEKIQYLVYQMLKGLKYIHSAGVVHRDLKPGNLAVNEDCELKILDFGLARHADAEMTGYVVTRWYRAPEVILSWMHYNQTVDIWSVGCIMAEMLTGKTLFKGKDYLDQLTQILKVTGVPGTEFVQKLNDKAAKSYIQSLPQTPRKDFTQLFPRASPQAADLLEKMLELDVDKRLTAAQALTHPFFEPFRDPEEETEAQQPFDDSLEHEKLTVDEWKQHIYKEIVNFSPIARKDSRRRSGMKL

[24] = target: CDK1/CycE1 (Homo sapiens, UniProt P06493); experiment: ProQinase radiometric kinase panel; details: mean of 2 exp.
[25] = target: MARK2 (Homo sapiens, UniProt Q7KZI7); experiment: ProQinase radiometric kinase panel; details: mean of 2 exp.
[26] = target: SAK (Homo sapiens, UniProt O00444); experiment: ProQinase radiometric kinase panel; details: mean of 2 exp.
[27] = target: SGK1 (Homo sapiens, UniProt O00141); experiment: ProQinase radiometric kinase panel; details: mean of 2 exp.
[28] = target: RET (Homo sapiens, UniProt P07949); experiment: ProQinase radiometric kinase panel; details: mean of 2 exp.
[29] = target: DAPK2 (Homo sapiens, UniProt Q9UIK4); experiment: ProQinase radiometric kinase panel; details: mean of 2 exp.
[30] = test system: HeLa cells; experiment: Cell viability XTT assay; format: cell-based; details: up to 10 μM, 3 days
[31] = Cell viability XTT assay; format: cell-based; details: human, HeLa cells, read-out: Viability of treated cells relative to untreated control
[32] = target: PDK1 (Homo sapiens, UniProt O15530); experiment: ProQinase radiometric kinase panel; details: mean of 2 exp.
[33] = target: FYN (Homo sapiens, UniProt P06241); experiment: ProQinase radiometric kinase panel; details: mean of 2 exp.
[34] = target: GRK6 (Homo sapiens, UniProt P43250); experiment: ProQinase radiometric kinase panel; details: mean of 2 exp.
[35] = target: CHK2 (Homo sapiens, UniProt O96017); experiment: ProQinase radiometric kinase panel; details: mean of 2 exp.
[36] = target: GSK3-alpha (Homo sapiens, UniProt P49840); experiment: ProQinase radiometric kinase panel; details: mean of 2 exp.
[37] = target: PIM3 (Homo sapiens, UniProt Q86V86); experiment: ProQinase radiometric kinase panel; details: mean of 2 exp.
[38] = target: CDK9/CycK (Homo sapiens, UniProt P50750); experiment: ProQinase radiometric kinase panel; details: mean of 2 exp.
[39] = target: TSF1 (Homo sapiens, UniProt O75716); experiment: ProQinase radiometric kinase panel; details: mean of 2 exp.

Chain of SRPK2 (P78362 whole entry): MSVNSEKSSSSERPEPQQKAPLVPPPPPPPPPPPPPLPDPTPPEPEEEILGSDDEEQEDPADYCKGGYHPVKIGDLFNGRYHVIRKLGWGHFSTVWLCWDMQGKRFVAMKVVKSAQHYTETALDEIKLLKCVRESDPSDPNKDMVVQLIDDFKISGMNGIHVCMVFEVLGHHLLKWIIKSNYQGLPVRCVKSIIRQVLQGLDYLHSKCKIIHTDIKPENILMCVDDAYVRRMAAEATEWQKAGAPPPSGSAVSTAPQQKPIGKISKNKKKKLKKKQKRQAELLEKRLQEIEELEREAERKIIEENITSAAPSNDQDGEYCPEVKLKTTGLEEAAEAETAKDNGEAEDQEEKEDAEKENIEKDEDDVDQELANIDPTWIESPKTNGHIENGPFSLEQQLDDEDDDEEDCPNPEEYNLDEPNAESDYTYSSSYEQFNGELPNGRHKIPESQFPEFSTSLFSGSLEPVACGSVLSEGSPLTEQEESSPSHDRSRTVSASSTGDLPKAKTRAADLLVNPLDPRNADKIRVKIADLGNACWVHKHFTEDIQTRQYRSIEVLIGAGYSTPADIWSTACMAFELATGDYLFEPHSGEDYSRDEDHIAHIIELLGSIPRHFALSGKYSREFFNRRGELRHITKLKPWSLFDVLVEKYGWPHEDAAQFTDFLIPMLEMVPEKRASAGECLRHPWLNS

Compound: COc1ccc2c3ccnc(Cl)c3n(CC#N)c2c1 [AnnH75]
- residual activity at 1 µM, Mean [1]: 106 % of control
- residual activity at 1 µM, Mean [2]: 83 % of control
- residual activity at 1 µM, Mean [3]: 95 % of control
- residual activity at 1 µM, Mean [4]: 92 % of control
- residual activity at 1 µM, Mean [5]: 93 % of control
- residual activity at 1 µM, Mean [6]: 82 % of control
- residual activity at 1 µM, Mean [7]: 99 % of control
- residual activity at 1 µM, Mean [8]: 108 % of control
- residual activity at 1 µM, Mean [9]: 91 % of control
- residual activity at 1 µM, Mean [10]: 91 % of control
- residual activity at 1 µM, Mean [11]: 92 % of control
- residual activity at 1 µM, Mean [12]: 97 % of control
- residual activity at 1 µM, Mean [13]: 98 % of control
- residual activity at 1 µM, Mean [14]: 91 % of control
- residual activity at 1 µM, Mean [15]: 92 % of control
- residual activity at 1 µM, Mean [16]: 105 % of control
- residual activity at 1 µM, Mean [17]: 108 % of control
- residual activity at 1 µM, Mean [18]: 94 % of control
- residual activity at 1 µM, Mean [19]: 94 % of control
- residual activity at 1 µM, Mean [20]: 87 % of control
- residual activity at 1 µM, Mean [21]: 97 % of control
- residual activity at 1 µM, Mean [22]: 77 % of control
- residual activity at 1 µM, Mean [23]: 89 % of control
- residual activity at 1 µM, Mean [24]: 93 % of control
- residual activity at 1 µM, Mean [25]: 98 % of control
- residual activity at 1 µM, Mean [26]: 112 % of control
- residual activity at 1 µM, Mean [27]: 91 % of control
- residual activity at 1 µM, Mean [28]: 89 % of control
- residual activity at 1 µM, Mean [29]: 97 % of control
- cytotoxicity [30]: minimal cytotoxicity
- viability at 3 days, 1 µM ([31]; 1 μM): 100%
- viability at 3 days, 3 µM ([31]; 3 μM): 93%
- residual activity at 1 µM, Mean [32]: 99 % of control
- residual activity at 1 µM, Mean [33]: 92 % of control
- residual activity at 1 µM, Mean [34]: 98 % of control
- residual activity at 1 µM, Mean [35]: 102 % of control
- residual activity at 1 µM, Mean [36]: 81 % of control
- residual activity at 1 µM, Mean [37]: 44 % of control
- residual activity at 1 µM, Mean [38]: 52 % of control
- residual activity at 1 µM, Mean [39]: 97 % of control
